Source: patent publication US20120125325A1, “THE USE OF AMLEXANOX IN THE THERAPY OF NEUTROPHIL-DRIVEN DISEASES” (priority 2009, published 2012)

What was measured:
[1] = system: LPS-induced neutrophilia in the airways of mice; experiment: LPS-induced airway neutrophilia in mice, inhaled (intra-tracheal) dosing (Example 2); details: for piloerection following LPS aerosol exposure: also seen in vehicle treated animals; for tolerance of dosing: mouse, in vivo
Experimental: • n=8 • Group 1—sham • Group 2—vehicle (10% DMSO) • Group 3—amlexanox (0.3 mg/mL) • Group 4—amlexanox (3 mg/mL) • Group 5—amlexanox (10 mg/mL) • Group 6—amlexanox (15 mg/mL) • Group 7—salbutamol (1 mg/mL) • Group 8—amlexanox (0.3 mg/mL)+salbutamol (1 mg/mL) • Group 9—amlexanox (3 mg/mL)+salbutamol (1 mg/mL) • Group 10—dexamethasone (1.0 mg/mL) • Group 11—fluticasone (1.0 mg/mL) • N.B. All test compounds to be administered by intra-tracheal dosing (using a PennCentury device) 1 hour before endotoxin exposure.
Non-fasted mice were weighed, individually identified on the tail with a permanent marker and administered by intra tracheal administration with doses of either vehicle, amlexanox, fluticasone, dexamethasone or salbutamol at time point T=−1 with respect to the start of LPS treatment (see above for group details). At T=0, mice were placed into an exposure chamber and exposed to LPS. The LPS was prepared in a solution of 0.5 mg/ml and aerosolised using a De Vibliss ultrasonic nebuliser 2000, so that 7 ml of the solution was aerosolised during the 30 min exposure period.
8 hours after LPS challenge the trachea was cannulated and BALF extracted. The procedure for this involved infusing and withdrawing 1 mL of PBS into the lungs via a tracheal catheter. This procedure was repeated to give a yield of approximately 2 mL lavage fluid. The BALF was aliquoted for analysis of neutrophilia and the remaining BALF stored at −80° C. for future cytokine analysis if required.
Total and differential white cell counts in the BAL fluid samples were measured using a Neubaur haemocytometer. Cytospin smears of the BAL fluid samples were prepared by centrifugation at 1200 rpm for 1 min at room temperature and stained using a DiffQuik stain system (Dade Behring).
Cells were counted blind using oil immersion microscopy.
Data were reported as total and differential number of cells per mL of BALF, mean±S.E.M. (standard error of the mean).
Inter-group deviations were statistically analysed by a one-way analysis of variance (ANOVA). In the case of significant difference in the mean values among the different levels of treatment, comparisons versus the vehicle group were carried out using the Dunnett's test. In case the equal variance test fails, a Kruskal-Wallis one-way analysis of variance on ranks followed by a Dunn's test were used. p<0.05 will be considered statistically significant.
Test compounds were administered in a dose volume of 20 μL using a FMJ-250 PennCentury device for intra-tracheal dosing.

leukotriene B4 = details: Taniguchi et al, 1990, and Kimishoto et al, 2006; cited from earlier work
[2] = system: LPS-induced neutrophilia in the airways of mice; experiment: LPS-induced airway neutrophilia in mice, oral amlexanox (Example 1); assay type: in vivo; details: amlexanox 1-30 mg/kg p.o. 1 hour before LPS aerosol, BALF 8 hours after LPS
Experimental: • n=8 • Group 1—sham (control) • Group 2—Vehicle (10% DMSO, p.o.) • Group 3—amlexanox (1 mg/kg, p.o.) • Group 4—amlexanox (3 mg/kg, p.o.) • Group 5—amlexanox (10 mg/kg, p.o.) • Group 6—amlexanox (30 mg/kg, p.o.) • Group 7—dexamethasone (1 mg/ml) • p.o.=per orus (orally)
N.B. All test compounds were administered via oral gavage using a ball tipped stainless steel delivery cannulae or via intra-tracheal dosing (using a PennCentury devise). In all cases this was 1 hour before endotoxin exposure.
In all cases the cells were counted blind using oil immersion microscopy.
Amlexanox dosed via oral gavage was administered in a dose volume of 0.1 ml using a ball tipped stainless steel delivery cannule.

SMILES | piloerection following LPS aerosol exposure ([1]; mice) | inhibition of neutrophilia (total cells and neutrophils in bronchoalveolar lavage fluid, FIGS. 2 to 6) ([1]; mice, amlexanox 0.3-15 mg/mL, 20 μL intra-tracheal 1 hour before LPS aerosol, BALF 8 hours after LPS) | tolerance of dosing [1] | LTB4 production (leukotriene B4) | effect as a bronchodilator (Bronchodilator effect) | inhibition of LPS-induced neutrophilia (cells in bronchoalveolar lavage fluid, FIG. 1) [2]
CC(C)c1ccc2oc3nc(N)c(C(=O)O)cc3c(=O)c2c1 [amlexanox] | noticeable degree of piloerection | inhibits neutrophilia | good tolerance of dosing | increase LTB4 production | little or no effect as a bronchodilator | effective at inhibiting LPS-induced neutrophilia
C[C@@H]1C[C@H]2[C@@H]3CCC4=CC(=O)C=C[C@]4(C)[C@@]3(F)[C@@H](O)C[C@]2(C)[C@@]1(O)C(=O)CO [dexamethasone] | noticeable degree of piloerection | – | good tolerance of dosing | – | – | –
C[C@@H]1C[C@H]2[C@@H]3C[C@H](F)C4=CC(=O)C=C[C@]4(C)[C@@]3(F)[C@@H](O)C[C@]2(C)[C@@]1(O)C(=O)SCF [fluticasone] | noticeable degree of piloerection | – | good tolerance of dosing | – | – | –
CC(C)(C)NCC(O)c1ccc(O)c(CO)c1 (stereo not drawn) [salbutamol] | noticeable degree of piloerection | – | good tolerance of dosing | – | – | –
